Three compounds from patent US7078499B2, “Nucleotide analogues comprising a reporter moiety and a polymerase enzyme blocking moiety” (GE Healthcare UK Limited, priority 2000, dated 2006) can be followed below.

Type in all cases: biochemical
In one test the target is T1, Bst DNA polymerase (Geobacillus stearothermophilus, UniProt P52026).
T1 construct: purchased Cambio Ltd
T1 sequence (P52026 1-876): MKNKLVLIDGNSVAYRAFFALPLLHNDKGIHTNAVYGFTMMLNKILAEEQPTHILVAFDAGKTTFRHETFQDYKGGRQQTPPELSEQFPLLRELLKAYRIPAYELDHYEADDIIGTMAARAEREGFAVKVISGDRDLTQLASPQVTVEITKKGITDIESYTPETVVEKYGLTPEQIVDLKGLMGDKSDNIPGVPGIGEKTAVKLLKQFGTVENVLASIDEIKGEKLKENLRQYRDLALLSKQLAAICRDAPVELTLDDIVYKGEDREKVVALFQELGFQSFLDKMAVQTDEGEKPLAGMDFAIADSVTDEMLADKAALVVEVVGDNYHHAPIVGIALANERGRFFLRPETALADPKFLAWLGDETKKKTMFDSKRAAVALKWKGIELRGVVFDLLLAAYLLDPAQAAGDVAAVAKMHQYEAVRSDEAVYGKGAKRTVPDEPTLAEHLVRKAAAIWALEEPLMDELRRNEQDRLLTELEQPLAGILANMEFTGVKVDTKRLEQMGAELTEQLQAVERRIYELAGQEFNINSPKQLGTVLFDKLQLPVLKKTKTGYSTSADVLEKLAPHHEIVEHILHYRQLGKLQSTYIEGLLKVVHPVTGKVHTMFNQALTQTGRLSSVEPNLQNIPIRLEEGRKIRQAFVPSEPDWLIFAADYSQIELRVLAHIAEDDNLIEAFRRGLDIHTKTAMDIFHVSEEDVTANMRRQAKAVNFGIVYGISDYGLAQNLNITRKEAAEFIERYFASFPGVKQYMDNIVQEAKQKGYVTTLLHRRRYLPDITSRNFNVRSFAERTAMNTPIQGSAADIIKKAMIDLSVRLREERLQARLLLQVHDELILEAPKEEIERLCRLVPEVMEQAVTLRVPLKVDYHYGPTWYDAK
The test is described as follows: Mesophilic DNA polymerase primer extension, Bst. More on the design: key to result of incorporation (termination / further chain extension): T: Incorporation results in termination; E: Incorporation permits further chain extension; T/E: Predominant product is primer extended by one base, but evidence of some further extension also observed. Conditions: DNA template, 37° C. for 20–40 minutes; for primer extended by at least one base within assay time (grade): TTP replaced entirely by test compound. The procedure: (§1) DNA polymerase assays were performed using Sequence 1 as primer and Sequence 2 as template. • Sequence 1 5′[Cy3]TAACTCATTAACAGGATC 3′ • Sequence 2 5′AT TCGCGGTATTCTGGTATGAAGCTTTTAGATCCTGTTAATGAGTTA GTA3′
(§2) The template (Sequence 2) was designed such that the base (underlined) immediately adjacent to the 3′ end of the hybridised primer is complementary to the nucleotide test compound. Nucleotide test compounds were compounds (6) (4′-C-(glycylaminomethyl)thymidine triphosphate), (8) (4′-C-(N-trifluoroacetyaminomethyl)thymidine triphosphate) and (9) (4′-C-(aminomethyl)thymidine triphosphate) as described above.
(§3) Primer extension reactions were performed using the above primers in the presence of 40 to 80 μM of nucleotide triphosphates. Positive control reactions contained all four native nucleotide triphosphates. For the other reactions the TTP was replaced with either a 2:1 ratio of […] for the terminator control, or entirely by the test compound The enzymes were used at a final concentration of 0.175 units/μl and a magnesium ion concentration of 2.5 mM in buffers supplied by the manufacturer. The primer and template concentrations were 0.5 pmol/μl and 2 pmol/μl respectively.
(§4) Extension reactions preformed with mesophilic polymerases were carried out by mixing all the components of the reaction except the enzyme and heating to 70° C. for 5 min. After the reactions had cooled to room temperature 0.175 units of the enzyme were added and the reactions heated to 37° C. for 20–40 minutes. The following enzymes were used: T7 DNA polymerase (T7); Sequenase 2™ (Seq); Klenow fragment of DNA polymerase 1 (Klen); phi-29 DNA polymerase (Phi-29); T4 DNA polymerase (T4) (all from AP Biotech) and Bst DNA polymerase (Bst) (Cambio Ltd).
(§5) The reactions were stopped by adding a 0.5 volume aliquot of 80% formamide containing 0.1% (w/v) bromophenol blue and 0.1% (w/v) cresol blue. The reaction products were separated by denaturing gel electrophoresis at a constant power of 45 W on 16% polyacrylamide gels containing 50% urea.
(§6) Gels were scanned for Cy3 fluorescence on a Molecular Dynamics Fluorimager and the data analysed using Molecular Dynamics ImageQuant 5 software.
(§7) The incorporation of a test nucleotide triphosphate results in the appearance on a polyacrylamide gel of a single band corresponding to a single base extension product. If, however, the enzyme adds additional bases then further bands would be observed that corresponded to either the full-length product or positions of other complementary bases in the template.

The target of another test is T2, Sequenase 2™ (Escherichia phage T7, UniProt P00581, DEL118-145).
T2 construct: purchased AP Biotech
The test is described as follows: Mesophilic DNA polymerase primer extension, Seq. More on the design: key to result of incorporation (termination / further chain extension): T: Incorporation results in termination; E: Incorporation permits further chain extension; T/E: Predominant product is primer extended by one base, but evidence of some further extension also observed. Conditions: DNA template, 37° C. for 20–40 minutes; for primer extended by at least one base within assay time (grade): TTP replaced entirely by test compound. How it is done: DNA polymerase assays were performed using Sequence 1 as primer and Sequence 2 as template. • Sequence 1 5′[Cy3][…] 3′ • Sequence 2 5′AT […]3′
as §2, §3, §4, §5, §6, §7

A further test has as its system AMV RT. The test is described as follows: Mesophilic reverse transcriptase reaction, AMV RT. More on the design: key: −: No extension within assay time; +/−: up to 25% of primer extended by at least one base within assay time; +: up to 50% of primer extended by at least one base within assay time; ++: up to 75% of primer extended by at least one base within assay time; +++: essentially all primer extended by at least one base within assay time. Conditions: RNA template, final enzyme concentration of 4 units/μl. How it is done:
as §1, §2, §3, §4
Reverse transcriptase reactions were performed essentially as described above for thermophilic and mesophilic enzymes. The template for these reactions was the RNA equivalent of sequence 2. […]
Gels were scanned for Cy3 fluorescence on a Molecular Dynamics Fluorimager and the data analysed using Molecular Dynamics ImageQuant 5 software. […]

T2 sequence (P0AA25 2-109, stated change not applied): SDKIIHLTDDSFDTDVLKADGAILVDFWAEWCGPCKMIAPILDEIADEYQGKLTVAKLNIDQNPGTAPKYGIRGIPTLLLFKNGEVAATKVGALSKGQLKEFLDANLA
T2 sequence (P00581 other isoform, or with tags, fused parts or gaps DEL118-145): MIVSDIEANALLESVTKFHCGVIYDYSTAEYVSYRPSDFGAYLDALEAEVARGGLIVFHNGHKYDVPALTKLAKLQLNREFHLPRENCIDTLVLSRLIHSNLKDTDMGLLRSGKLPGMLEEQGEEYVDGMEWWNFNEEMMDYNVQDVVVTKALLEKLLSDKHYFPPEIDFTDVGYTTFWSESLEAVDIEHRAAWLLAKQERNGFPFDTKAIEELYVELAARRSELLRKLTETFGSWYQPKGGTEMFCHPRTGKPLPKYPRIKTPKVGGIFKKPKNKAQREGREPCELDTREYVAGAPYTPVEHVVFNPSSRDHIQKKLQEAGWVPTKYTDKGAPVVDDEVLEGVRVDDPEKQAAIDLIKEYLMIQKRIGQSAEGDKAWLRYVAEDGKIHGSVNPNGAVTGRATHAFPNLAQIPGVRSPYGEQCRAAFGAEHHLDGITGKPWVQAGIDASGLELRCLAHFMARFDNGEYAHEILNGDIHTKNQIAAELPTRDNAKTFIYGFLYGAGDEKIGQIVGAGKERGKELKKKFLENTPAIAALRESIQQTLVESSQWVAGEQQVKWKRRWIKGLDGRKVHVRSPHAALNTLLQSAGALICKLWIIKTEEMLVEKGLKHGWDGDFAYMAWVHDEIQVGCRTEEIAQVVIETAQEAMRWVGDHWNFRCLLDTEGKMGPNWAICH

Consider “4′-C-(Aminomethyl)thymidine triphosphate [compound (9)]”, for which the “result of incorporation (termination / further chain extension)” value at Bst DNA polymerase and on Sequenase 2™ was “T” in each case. Also, the figures for the “primer extended by at least one base within assay time (grade)” value (from here on “primer extended”) at Bst DNA polymerase, at Sequenase 2™ and in the test with AMV RT were “+ (up to 50% of primer extended by at least one base within assay time)”, “+ (up to 50% of primer extended by at least one base within assay time)” and “−”, respectively.
Take “4′-C-(Glycylaminomethyl)thymidine triphosphate [compound (6)]”: the “result of incorporation (termination / further chain extension)” value on Bst DNA polymerase and at Sequenase 2™ was “T” in each case. Moreover, the “primer extended” value on Bst DNA polymerase is reported as “+ (up to 50% of primer extended by at least one base within assay time)”; at Sequenase 2™, “+ (up to 50% of primer extended by at least one base within assay time)”; in the test on AMV RT, “−”.
Turning to `Cc1cn([C@H]2C[C@H](O)[C@@](CNC(=O)C(F)(F)F)(COP(=O)(O)OP(=O)(O)OP(=O)(O)O)O2)c(=O)[nH]c1=O` [compound (8), 4′-C-(N-trifluoroacetylaminomethyl)thymidine triphosphate], the “result of incorporation (termination / further chain extension)” value at Bst DNA polymerase and at Sequenase 2™ was “T” each time. The “primer extended” value was “+ (up to 50% of primer extended by at least one base within assay time)” on Bst DNA polymerase, “+ (up to 50% of primer extended by at least one base within assay time)” at Sequenase 2™ and “−” in the test with AMV RT.
